The results in this text go back to patent US20240067693A1, “POLYPEPTIDES AND USES THEREOF” (MEDIMMUNE LIMITED, priority 2020, published 2024).

In data set [1] the target is T1, human amylin receptor (calcitonin receptor co-expressed with receptor activity modifying protein, RAMP3) (hAMYR3) (Homo sapiens, UniProt O60896+P30988).
T1 construct: expressed in transfected cells
T1 sequence (P30988 25-474): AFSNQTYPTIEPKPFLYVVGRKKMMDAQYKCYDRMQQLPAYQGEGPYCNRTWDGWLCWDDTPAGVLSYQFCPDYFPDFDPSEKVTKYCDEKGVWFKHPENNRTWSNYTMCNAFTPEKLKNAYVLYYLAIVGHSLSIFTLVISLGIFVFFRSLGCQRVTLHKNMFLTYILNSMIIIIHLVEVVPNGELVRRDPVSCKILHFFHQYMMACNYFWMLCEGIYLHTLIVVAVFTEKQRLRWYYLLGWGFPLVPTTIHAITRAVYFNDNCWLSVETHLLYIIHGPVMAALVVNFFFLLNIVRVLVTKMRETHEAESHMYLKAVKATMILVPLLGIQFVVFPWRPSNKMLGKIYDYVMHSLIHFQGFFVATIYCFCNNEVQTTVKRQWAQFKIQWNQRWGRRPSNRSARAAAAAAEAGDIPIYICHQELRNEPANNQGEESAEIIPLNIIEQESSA
T1 sequence (O60896 24-148 partner): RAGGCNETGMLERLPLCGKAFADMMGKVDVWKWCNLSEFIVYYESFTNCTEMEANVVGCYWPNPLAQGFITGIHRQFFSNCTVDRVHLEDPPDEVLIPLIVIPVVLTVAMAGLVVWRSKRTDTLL
Nature of the data set: cAMP production in 1321N1 cells with stable recombinant expression of human amylin receptor (hAMYR3). As to conditions: for Ratio (selectivity hAMYR vs hCTR, ratio of EC50 values at the two receptors): EC50 hCTR / EC50 hAMYR3; for EC50: cAMP, 1321N1 cells, assay buffer with 0.1% BSA, read-out: EC50 (pM) hAMYR3. The class given is cell-based. In outline:
(§1)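 Thawed cells in HBSS/0.1% BSA/25 mM HEPES pH 7.4 with 0.5 mM IBMX were incubated with peptides 30 min at room temperature; cAMP read by HTRF. EC50 from 4-parameter fit of % activation relative to maximal amylin or calcitonin effect.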

The target in data set [2] is T2, human calcitonin receptor (hCTR) (Homo sapiens, UniProt P30988).
T2 construct: expressed in transfected cells
T2 sequence (P30988 25-474): T1 sequence (P30988 25-474)
Nature of the data set: cAMP production in 1321N1 cells with stable recombinant expression of human calcitonin receptor (hCTR). The class given is cell-based. The following applies: cAMP, 1321N1 cells, assay buffer with 0.1% BSA; read-out: EC50 (pM) hCTR. An outline of the steps: as §1

Data set [3] can be described thus: Thioflavin T fibrillation assay. The data set is classed as physicochemical. As to conditions: ThT fibrillation assay; peptide 1 mg/mL in 25 mM sodium acetate buffer pH 4.0; 6 days at 37 °C with shaking; >144 h = no increase. The text has this: Peptide aggregation that form fibrils is an indication of physical instability. Fibril formation in solution poses a significant risk for the stability of injectable peptide drug products. Thioflavin T (ThT) fibrillation assay is a useful tool to assess the aggregation kinetics of a peptide or protein under accelerated and stressed conditions that can be used to forecast the long-term viability of a compound in solution. ThT can selectively bind amyloid fibrils and the resultant complex emits strong fluorescence signal at 482 nm when excited at 450 nm (Anal Biochem. 1989 Mar;177(2):244-9). Monitoring of the change in fluorescence signal is an established method to study the fibril forming potential of peptides and proteins. ThT (purchased from Sigma Aldrich) stock solution is prepared by dissolving the ThT powder in Milli-Q water and filtered to obtain a 0.25 mM solution. The concentration of the solution is measured at 412 nm using an extinction coefficient of 36 mM^−1cm^−1. Test peptides were dissolved at 1 mg/mL in 25 mM sodium acetate buffer pH 4.0. 100 μL aliquot of peptide solution and 5 μL aliquot of ThT solution were placed in a clear bottom black fluorescence 96-well plate. 5 replicates of each test samples were placed in zo the same row of the plate. Buffer was placed in control wells for baseline correction. All empty wells were filled with water to prevent evaporation. The plate was sealed with aluminium seal and placed in fluorescence plate reader and incubated for 6 days at 37 ° C. with intermittent orbital shaking at 500 to 750 rpm. The fluorescence intensity was measured every 30 min using excitation at 444 nm and emission at 480 nm. The fibril forming potential of the test peptides was determined by measuring the average time taken to detect an increase in baseline corrected fluorescence intensity.

Numbered stars: 1 amine (or outer) side, 2 acyl side, 3 side chain; on linkers, the order of the positions; unused ones are H or OH. Bridge positions count the residues as written; N and C are the ends. Square brackets hold non-standard residues; d marks the D form. Side chains are listed from the residue outwards. Peptide text beside a SMILES is read from it. * marks the point of attachment. C18 diacid = O=C(O)CCCCCCCCCCCCCCCCC(=O)*; γGlu = O=C(O)[C@H](CCC(=O)[*:2])N[*:1]; αMeF = C[C@](N)(Cc1ccccc1)C(=O)O; Dab = NCC[C@H](N)C(=O)O; AEEA = NCCOCCOCC(=O)O; Aib = CC(C)(N)C(=O)O Bounds are passed on as bounds.

In the case of `CC[C@H](C)[C@H](NC(=O)[C@@H]1CCCN1C(=O)CNC(=O)[C@H](Cc1ccccc1)NC(=O)[C@H](CC(N)=O)NC(=O)[C@H](CC(N)=O)NC(=O)[C@H](CO)NC(=O)[C@H](CO)NC(=O)[C@H](Cc1c[nH]cn1)NC(=O)C(C)(C)NC(=O)[C@H](CC(C)C)NC(=O)[C@H](Cc1ccccc1)NC(=O)[C@H](CCN)NC(=O)[C@H](C)NC(=O)[C@H](CC(C)C)NC(=O)[C@H](CCCNC(=N)N)NC(=O)[C@H](CCC(N)=O)NC(=O)[C@@H](NC(=O)[C@H](C)NC(=O)[C@@H]1CSSC[C@H](NC(=O)[C@H](CCCCN)NC(=O)[C@@H](N)CCCCNC(=O)CC[C@H](NC(=O)CCCCCCCCCCCCCCCCC(=O)O)C(=O)O)C(=O)N[C@@H](CC(N)=O)C(=O)N[C@@H]([C@@H](C)O)C(=O)N[C@@H](C)C(=O)N[C@@H]([C@@H](C)O)C(=O)N1)[C@@H](C)O)C(=O)N[C@@H](CC(C)C)C(=O)N1CCC[C@H]1C(=O)N1CCC[C@H]1C(=O)N[C@H](C(=O)N[C@@H](CCC(=O)O)C(=O)N[C@H](C(=O)NCC(=O)N[C@@H](CO)C(=O)N[C@@H](CC(N)=O)C(=O)N[C@H](C(=O)N[C@@H](Cc1ccc(O)cc1)C(N)=O)[C@@H](C)O)C(C)C)[C@@H](C)O` [Peptide 156] (H-K([γGlu-C18 diacid])KCNTATCATQRLA[Dab]FL[Aib]HSSNNFGPILPPTEVGSNTY-NH2; disulfide 3-8), the “Ratio (selectivity hAMYR vs hCTR, ratio of EC50 values at the two receptors)” value in data set [1] was 22.3. Also, the EC50 was found to be 3750 pM in data set [1] and 83800 pM in data set [2]. For the same compound, in data set [3], the “Time taken to detect increase in fluorescence intensity” value (shortened to “Time taken to detect increase”) is given as over 144 h.
Consider `CC[C@H](C)[C@H](NC(=O)[C@@H]1CCCN1C(=O)CNC(=O)[C@](C)(Cc1ccccc1)NC(=O)[C@H](CC(N)=O)NC(=O)[C@H](CC(N)=O)NC(=O)[C@H](CO)NC(=O)[C@H](CO)NC(=O)[C@H](Cc1c[nH]cn1)NC(=O)[C@H](CCCNC(=N)N)NC(=O)[C@H](CC(C)C)NC(=O)[C@H](Cc1ccccc1)NC(=O)[C@H](CCC(=O)O)NC(=O)[C@H](C)NC(=O)[C@H](CC(C)C)NC(=O)[C@H](CCCNC(=N)N)NC(=O)[C@H](CCC(N)=O)NC(=O)[C@@H](NC(=O)[C@H](C)NC(=O)[C@@H]1CSSC[C@H](NC(=O)[C@@H](N)CCCCNC(=O)CC[C@H](NC(=O)CC[C@H](NC(=O)CCCCCCCCCCCCCCCCC(=O)O)C(=O)O)C(=O)O)C(=O)N[C@@H](CC(N)=O)C(=O)N[C@@H]([C@@H](C)O)C(=O)N[C@@H](C)C(=O)N[C@@H]([C@@H](C)O)C(=O)N1)[C@@H](C)O)C(=O)N[C@@H](CC(C)C)C(=O)N1CCC[C@H]1C(=O)N1CCC[C@H]1C(=O)N[C@H](C(=O)N[C@@H](CC(N)=O)C(=O)N[C@H](C(=O)NCC(=O)N[C@@H](CO)C(=O)N[C@@H](CC(N)=O)C(=O)N[C@H](C(=O)N[C@@H](Cc1ccc(O)cc1)C(N)=O)[C@@H](C)O)C(C)C)[C@@H](C)O` [Peptide 11, K(γE-γE-C18diacid)[CNTATC]ATQRLAEFLRHSSNN(αMePhe)GPILPPTNVGSNTY-amide] (H-K([γGlu-γGlu-C18 diacid])CNTATCATQRLAEFLRHSSNN[αMeF]GPILPPTNVGSNTY-NH2; disulfide 2-7), for which the “Ratio (selectivity hAMYR vs hCTR, ratio of EC50 values at the two receptors)” value in data set [1] came out at 21. Moreover, the concentration giving a half-maximal response (EC50) in data set [1] is 177 pM; in data set [2], 3640 pM. The “Time taken to detect increase” value in data set [3] is on record as over 144 h.
As for `CC[C@H](C)[C@H](NC(=O)[C@@H]1CCCN1C(=O)CNC(=O)[C@](C)(Cc1ccccc1)NC(=O)[C@H](CC(N)=O)NC(=O)[C@H](CC(N)=O)NC(=O)[C@H](CO)NC(=O)[C@H](CO)NC(=O)[C@H](Cc1c[nH]cn1)NC(=O)[C@H](CCCNC(=N)N)NC(=O)[C@H](CC(C)C)NC(=O)[C@H](Cc1ccccc1)NC(=O)[C@H](CC(N)=O)NC(=O)[C@H](C)NC(=O)[C@H](CC(C)C)NC(=O)[C@H](CCCNC(=N)N)NC(=O)[C@H](CCC(N)=O)NC(=O)[C@@H](NC(=O)[C@H](C)NC(=O)[C@@H]1CSSC[C@H](NC(=O)[C@@H](N)CCCCNC(=O)COCCOCCNC(=O)COCCOCCNC(=O)CC[C@H](NC(=O)CCCCCCCCCCCCCCCCC(=O)O)C(=O)O)C(=O)N[C@@H](CC(N)=O)C(=O)N[C@@H]([C@@H](C)O)C(=O)N[C@@H](C)C(=O)N[C@@H]([C@@H](C)O)C(=O)N1)[C@@H](C)O)C(=O)N[C@@H](CC(C)C)C(=O)N1CCC[C@H]1C(=O)N1CCC[C@H]1C(=O)N[C@H](C(=O)N[C@@H](CCC(=O)O)C(=O)N[C@H](C(=O)NCC(=O)N[C@@H](CO)C(=O)N[C@@H](CC(N)=O)C(=O)N[C@H](C(=O)N[C@@H](Cc1ccc(O)cc1)C(N)=O)[C@@H](C)O)C(C)C)[C@@H](C)O` [Peptide 17, K(O2Oc-O2Oc-γE-C18diacid)[CNTATC]ATQRLANFLRHSSNN(αMePhe)GPILPPTEVGSNTY-amide] (H-K([AEEA-AEEA-γGlu-C18 diacid])CNTATCATQRLANFLRHSSNN[αMeF]GPILPPTEVGSNTY-NH2; disulfide 2-7; N-terminus assumed), the “Ratio (selectivity hAMYR vs hCTR, ratio of EC50 values at the two receptors)” value in data set [1] is 19. Moreover, the 50% effective concentration (EC50) was found to be 365 pM in data set [1] and 7080 pM in data set [2]. For the same compound, the “Time taken to detect increase” value in data set [3] was over 144 h.
Taken in the same sequence, the figures for `CC[C@H](C)[C@H](NC(=O)[C@@H]1CCCN1C(=O)CNC(=O)[C@H](Cc1ccccc1)NC(=O)[C@H](CC(N)=O)NC(=O)[C@H](CC(N)=O)NC(=O)[C@H](CO)NC(=O)[C@H](CO)NC(=O)[C@H](Cc1c[nH]cn1)NC(=O)[C@@H](NC(=O)[C@H](CC(C)C)NC(=O)[C@H](Cc1ccccc1)NC(=O)[C@H](CC(N)=O)NC(=O)[C@H](C)NC(=O)[C@H](CC(C)C)NC(=O)[C@H](CCCNC(=N)N)NC(=O)[C@H](CCC(N)=O)NC(=O)[C@@H](NC(=O)[C@H](C)NC(=O)[C@@H]1CSSC[C@H](NC(=O)[C@@H](N)CCCCNC(=O)CC[C@H](NC(=O)CCCCCCCCCCCCCCCCC(=O)O)C(=O)O)C(=O)N[C@@H](CC(N)=O)C(=O)N[C@@H]([C@@H](C)O)C(=O)N[C@@H](C)C(=O)N[C@@H]([C@@H](C)O)C(=O)N1)[C@@H](C)O)C(C)C)C(=O)N[C@H](CC(C)C)C(=O)N1CCC[C@H]1C(=O)N1CCC[C@H]1C(=O)N[C@H](C(=O)N[C@@H](CC(N)=O)C(=O)N[C@H](C(=O)NCC(=O)N[C@@H](CO)C(=O)N[C@@H](CC(N)=O)C(=O)N[C@H](C(=O)N[C@@H](Cc1ccc(O)cc1)C(N)=O)[C@@H](C)O)C(C)C)[C@@H](C)O` [Peptide 103, K(γE-C18diacid)[CNTATC]ATQRLANFLVHSSNNFGPI(dL)PPTNVGSNTY-amide] (H-K([γGlu-C18 diacid])CNTATCATQRLANFLVHSSNNFGPI[dL]PPTNVGSNTY-NH2; disulfide 2-7; N-terminus assumed) were 12, 161 pM, 1880 pM and under 5 h.
